Source: PubChem BioAssay (NCI)
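Method: 48-hour compound exposure of cells in 96-well plates, five concentrations, linear interpolation of endpoints. GI50 marks 50% less growth. At the TGI there is no net growth.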

Columns and labels:
Assay in all cases: NCI anticancer screen, dose series, 48 h
RPMI-8226 leukemia = tested on: RPMI-8226 leukemia
OVCAR-8 ovarian = tested on: OVCAR-8 ovarian
MALME-3M melanoma = tested on: MALME-3M melanoma
U251 CNS = tested on: U251 CNS
HT29 colon = tested on: HT29 colon
SN12C renal = tested on: SN12C renal
CAKI-1 renal = tested on: CAKI-1 renal
OVCAR-3 ovarian = tested on: OVCAR-3 ovarian
SF-268 CNS = tested on: SF-268 CNS
SNB-75 CNS = tested on: SNB-75 CNS
HOP-62 NSCLC = tested on: HOP-62 NSCLC
UACC-62 melanoma = tested on: UACC-62 melanoma
KM12 colon = tested on: KM12 colon
HCT-116 colon = tested on: HCT-116 colon
NCI-H460 lung = tested on: NCI-H460 lung
SF-295 CNS = tested on: SF-295 CNS
EKVX NSCLC = tested on: EKVX NSCLC
PC-3 prostate = tested on: PC-3 prostate
TK-10 renal = tested on: TK-10 renal
RXF 393 renal = tested on: RXF 393 renal
MDA-MB-231 breast = tested on: MDA-MB-231 breast
HOP-92 NSCLC = tested on: HOP-92 NSCLC
M14 melanoma = tested on: M14 melanoma
SK-MEL-28 melanoma = tested on: SK-MEL-28 melanoma
HCC-2998 colon = tested on: HCC-2998 colon
SF-539 CNS = tested on: SF-539 CNS
COLO 205 colon = tested on: COLO 205 colon
UO-31 renal = tested on: UO-31 renal
DU-145 prostate = tested on: DU-145 prostate

CS(=O)(=O)c1nccc(-c2c(-c3ccc(F)c(OCCc4ccc(F)cc4)c3)nc3sccn23)n1
TGI (RPMI-8226 leukemia): 28.1 µM | GI50 (OVCAR-8 ovarian): 15.5 µM | TGI (OVCAR-8 ovarian): 33.2 µM | GI50 (MALME-3M melanoma): 17.2 µM | TGI (MALME-3M melanoma): 31.7 µM | GI50 (U251 CNS): 15.9 µM | TGI (U251 CNS): 29.7 µM | GI50 (HT29 colon): 15.2 µM | TGI (HT29 colon): 30.6 µM | GI50 (SN12C renal): 13.8 µM | TGI (SN12C renal): 30.6 µM | GI50 (CAKI-1 renal): 13.5 µM | TGI (CAKI-1 renal): 26.4 µM | GI50 (OVCAR-3 ovarian): 7.11 µM | TGI (OVCAR-3 ovarian): 20.8 µM | GI50 (SF-268 CNS): 16.4 µM | TGI (SF-268 CNS): 36.9 µM | GI50 (SNB-75 CNS): 11.4 µM | TGI (SNB-75 CNS): 23.6 µM | GI50 (HOP-62 NSCLC): 15.3 µM | TGI (HOP-62 NSCLC): 31.2 µM | GI50 (UACC-62 melanoma): 15.4 µM | TGI (UACC-62 melanoma): 35.5 µM | GI50 (KM12 colon): 13 µM | TGI (KM12 colon): 28.5 µM | GI50 (HCT-116 colon): 12.9 µM | TGI (HCT-116 colon): 25.5 µM | GI50 (NCI-H460 lung): 4.25 µM | TGI (NCI-H460 lung): 16.3 µM | GI50 (SF-295 CNS): 17 µM | TGI (SF-295 CNS): 31.6 µM | GI50 (EKVX NSCLC): 12.7 µM | TGI (EKVX NSCLC): 25.4 µM | GI50 (PC-3 prostate): 10.9 µM | TGI (PC-3 prostate): 27.2 µM | GI50 (TK-10 renal): 15.1 µM | TGI (TK-10 renal): 28.3 µM | GI50 (RXF 393 renal): 15 µM | TGI (RXF 393 renal): 29.2 µM | GI50 (MDA-MB-231 breast): 17 µM | TGI (MDA-MB-231 breast): 37.8 µM | GI50 (HOP-92 NSCLC): 4.7 µM | TGI (HOP-92 NSCLC): 18.8 µM | GI50 (M14 melanoma): 16.6 µM | TGI (M14 melanoma): 30.9 µM | GI50 (SK-MEL-28 melanoma): 11.9 µM | TGI (SK-MEL-28 melanoma): 24.5 µM | GI50 (HCC-2998 colon): 3.48 µM | TGI (HCC-2998 colon): 11.3 µM | GI50 (SF-539 CNS): 15.5 µM | TGI (SF-539 CNS): 30 µM | GI50 (COLO 205 colon): 17.1 µM | TGI (COLO 205 colon): 32.5 µM | GI50 (UO-31 renal): 10.2 µM | TGI (UO-31 renal): 21.8 µM | GI50 (DU-145 prostate): 2.07 µM | TGI (DU-145 prostate): 4.32 µM
